Data set [1] is described as follows: Hypotensive activity in spontaneously hypertensive rats, mean arterial blood pressure (Chan and Poorvin). Format: in vivo, spontaneously hypertensive rats of the Okamoto strain. Particulars: oral gavage, 100 mg/kg or less, two doses 24 hours apart, measured 28 hours after initial dose; average MABP of rats used 160±1.5 mm Hg. Here is the method: The novel compounds of the present invention also are active antihypertensive agents and were tested for hypotensive activity by the method of P. S. Chan and D. Poorvin, Clinical and Experimental Hypertension, 1(6), 817-830 (1979). Male, 16 week old, spontaneously hypertensive rats of the Okamoto strain, from Taconic Farms, Germantown, N.Y., having an average mean arterial blood pressure of 160±1.5 mm of mercury are used in the test. One to three rats are used per test compound. A rat is dosed by gavage with a test compound, suspended in 2% pre-boiled starch at a concentration of 50 mg/ml, at a dose of 100 mg/kg of body weight or less, with 0.9% sodium chloride loading at a dose of 25 ml/kg of body weight. A second identical dose of the test compound, without sodium chloride loading, is given 24 hours later. At 28 hours after the initial dose the mean arterial blood pressure is measured by the method of Chan and Poorvin, vide supra. The procedure is repeated in a second and third rat when necessary.

For the next data set, the target named is T1, thromboxane synthetase (Rattus norvegicus, UniProt P49430).
T1 construct: The platelets were isolated by centrifuging the PRP for 10 minutes; endogenous in cells; host or cells: washed platelets from arterial blood of Okamoto-Aoki spontaneously hypertensive rats (animals from Taconic Farms)
T1 sequence (P49430 1-533): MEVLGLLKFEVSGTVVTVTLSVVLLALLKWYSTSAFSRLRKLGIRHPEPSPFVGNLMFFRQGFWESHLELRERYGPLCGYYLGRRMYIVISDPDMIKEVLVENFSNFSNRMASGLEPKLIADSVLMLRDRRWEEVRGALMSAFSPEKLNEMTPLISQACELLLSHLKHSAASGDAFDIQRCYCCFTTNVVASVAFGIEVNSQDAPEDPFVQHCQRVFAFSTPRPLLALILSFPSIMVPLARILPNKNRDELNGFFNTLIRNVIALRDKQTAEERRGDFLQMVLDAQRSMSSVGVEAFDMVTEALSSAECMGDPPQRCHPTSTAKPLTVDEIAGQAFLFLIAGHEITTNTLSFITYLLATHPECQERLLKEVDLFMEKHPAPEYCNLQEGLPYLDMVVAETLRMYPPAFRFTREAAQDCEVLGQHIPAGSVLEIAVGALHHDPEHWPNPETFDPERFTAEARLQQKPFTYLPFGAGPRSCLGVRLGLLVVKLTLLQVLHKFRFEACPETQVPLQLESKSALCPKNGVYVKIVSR
The data set can be described thus: Inhibition of thromboxane (TXA2) formation in SHR platelets, TXB2 measured by radioimmunoassay. Particulars: read-out: % Inhibition (of TXB2 formation). Format: cell-based, Okamoto-Aoki spontaneously hypertensive rats (SHR). Here is the method: The inhibition of thromboxane (TXA2) formation was studied by determining the concentration of thromboxane B2 (TXB2), the stable hydrolysis product of TXA2. […] The blood was diluted with 3 ml cold saline and centrifuged at room temperature for 15 minutes at 460×g. The platelet rich plasma (PRP) was separated. The platelets were isolated by centrifuging the PRP for 10 minutes at 1060×g and were washed in 4 ml cold oxygenated Krebs phosphate buffer, pH 7.4. The chilled platelets recovered from centrifuging at 800×g for 10 minutes were resuspended in oxygenated Krebs phosphate buffer and diluted to contain 4.5-6.0×10^4 platelets/μl. Assay samples, prepared on ice, contained 200 μl platelet suspension, 50 μl saline, and 50 μl vehicle or drug under study. The samples were incubated for 10 minutes at 37° C. in a metabolic shaker. The reaction was terminated by immersing the tubes in an ice bath and adding 50 μl of 0.5M citric acid. The samples were centrifuged for 10 minutes in a refrigerated centrifuge and the supernatants thus obtained were decanted and stored at -20° C.

The conditions of data set [2]: guinea pigs; literature; cited from earlier work.
For data set [3] the following is noted: rabbits; literature; cited from earlier work.
The conditions of data set [4]: canines; J. Cardiovascular Pharmacology, 4, 129 (1982); cited from earlier work.
The mark [5] stands for this setting: dose 10^-4 M, SHR washed platelets, 10 minutes at 37° C.

The source of these data is patent publication US4610981A, “N-[(1H-imidazol-1-yl) and (1H-1,2,4-triazol-1-yl)-alkyl]benzenesulfonamides and thromboxane synthetase/antihypertensive compositions” (priority 1985, dated 1986).

Structures can show the parent of a compound that is named as a salt. Where two headings read alike, the source gives them in different places.

Turning to `O=S(=O)(NCCn1ccnc1)c1ccc(Br)cc1` [4-Bromo-N-[2-(1H-imidazol-1-yl)ethyl]benzenesulfonamide], the “MABP in mm Hg” value in data set [1] turned out to be 125 mm Hg.

On to `O=S(=O)(NCCCCCn1ccnc1)c1ccc(Cl)cc1` [4-Chloro-N-[5-(1H-imidazol-1-yl)pentyl]benzenesulfonamide], for which the “MABP in mm Hg” value in data set [1] is reported as 119 mm Hg.

`O=S(=O)(NCCCn1ccnc1)c1ccc(Br)cc1` [4-Bromo-N-[3-(1H-imidazol-1-yl)propyl]benzenesulfonamide]: the inhibition at 100 µM at thromboxane synthetase turned out to be 100%. Besides, the “MABP in mm Hg” value in data set [1] was 126 mm Hg.

For the molecule `O=S(=O)(NCCCCn1ccnc1)c1ccc(Cl)cc1` [4-Chloro-N-[4-(1H-imidazol-1-yl)butyl]benzenesulfonamide], the inhibition at 100 µM on thromboxane synthetase (setting [5]) was 94%.

In the case of `COc1ccc(S(=O)(=O)NCCCn2ccnc2)cc1` [N-[3-(1H-Imidazol-1-yl)propyl]-4-methoxybenzenesulfonamide], the inhibition at 100 µM on thromboxane synthetase (setting [5]) is 100%.

For the molecule `CC(=O)Nc1ccc(S(=O)(=O)NCCCCn2ccnc2)cc1` [N-[4-[[[4-(1H-imidazol-1-yl)butyl]amino]sulfonyl]phenyl]acetamide], the inhibition at 100 µM on thromboxane synthetase (setting [5]) was 100%. In addition, in data set [1], the “MABP in mm Hg” value was 116 mm Hg.

As for `CCCCCC(O)/C=C/C1OC2CC(O2)C1C/C=C\CCCC(=O)O` (centres unmarked) [TXA2], the “effect of injection into coronary arteries (in words)” value in data set [2] was “causes myocardial ischemia and subendocardial necrosis”; in data set [3] it was “causes myocardial ischemia and subendocardial necrosis”.

`O=S(=O)(NCCCCCn1ccnc1)c1ccc(Cl)cc1` [4-Chloro-N-[5-(1H-imidazol-1-yl)pentyl]benzenesulfonamide hydrochloride]: the inhibition at 100 µM at thromboxane synthetase (setting [5]) stood at 97%.

On to `CCCCC[C@H](O)/C=C/[C@@H]1[C@H]2C/C(=C/CCCC(=O)O)O[C@H]2C[C@H]1O` [PGI2], for which the “effect on ischemic myocardium (in words)” value in data set [4] is recorded as “beneficial effects”.

In the case of `O=S(=O)(NCCCCn1ccnc1)c1ccccc1` [N-[4-(1H-Imidazol-1-yl)butyl]benzenesulfonamide], the inhibition at 100 µM at thromboxane synthetase (setting [5]) was 93%.

Take `COc1ccc(S(=O)(=O)NCCCCn2ccnc2)cc1` [N-[4-(1H-imidazol-1-yl)butyl]-4-methoxybenzenesulfonamide]: the inhibition at 100 µM at thromboxane synthetase (setting [5]) was 97%. Moreover, in data set [1], the “MABP in mm Hg” value was 134 mm Hg.

Consider `O=S(=O)(NCCCn1ccnc1)c1ccc(Cl)cc1` [4-Chloro-N-[3-(1H-imidazol-1-yl)propyl]benzenesulfonamide], for which the inhibition at 100 µM on thromboxane synthetase (setting [5]) amounted to 99%. Besides, the “MABP in mm Hg” value in data set [1] was 120 mm Hg.

Regarding `O=S(=O)(NCCc1cccnc1)c1ccc(Cl)cc1` [4-Chloro-N-[2-(3-pyridyl)ethyl]benzenesulfonamide], at thromboxane synthetase (setting [5]), the inhibition at 100 µM is 90%. Further, the “MABP in mm Hg” value in data set [1] is listed as 109 mm Hg.

With `O=S(=O)(NCCCCCCCCn1ccnc1)c1ccc(Cl)cc1` [4-Chloro-N-[8-(1H-imidazol-1-yl)octyl]benzenesulfonamide], the inhibition at 100 µM on thromboxane synthetase (setting [5]) amounted to 93%. Also, in data set [1], the “MABP in mm Hg” value was found to be 132 mm Hg.

With `O=S(=O)(NCCCn1cncn1)c1ccc(Cl)cc1` [4-Chloro-N-[3-(1H-1,2,4-triazol-1-yl)propyl]benzenesulfonamide], in data set [1], the “MABP in mm Hg” value was determined as 127 mm Hg.

In the case of `O=S(=O)(NCCCn1cncn1)c1ccccc1` [N-[3-(1H-1,2,4-Triazol-1-yl)propyl]benzenesulfonamide], at thromboxane synthetase (setting [5]), the inhibition at 100 µM amounted to 67%.

As for `O=S(=O)(NCCCCn1ccnc1)c1ccc(Br)cc1` [4-Bromo-N-[4-(1H-imidazol-1-yl)butyl]benzenesulfonamide], the inhibition at 100 µM on thromboxane synthetase (setting [5]) is 91%.

As for `CC(=O)Nc1ccc(S(=O)(=O)NCCCn2ccnc2)cc1` [N-[4-[[[3-(1H-Imidazol-1-yl)propyl]amino]sulfonyl]phenyl]acetamide], the inhibition at 100 µM on thromboxane synthetase (setting [5]) turned out to be 73%. For the same molecule, in data set [1], the “MABP in mm Hg” value is 131 mm Hg.
